Assay results from patent US12690589B2, “Herbicidal compositions comprising pyroxasulfone” (BASF SE, priority 2024, dated 2026).

Key:
Test in all cases: Post-emergence application in field trials, herbicidal activity (damage scale 0 to 100%)
Type in all cases: in vivo
[1] = system: Amaranthus retroflexus (AMARE)
Description: (§1) In the examples below, using the method of S. R. Colby (1967) “Calculating synergistic and antagonistic responses of herbicide combinations”, Weeds 15, p. 22ff., the value E, which is expected if the activity of the individual active compounds is only additive, was calculated:
(§2) [formula] • wherein • X=percent activity using active herbicide A at an application rate a; • Y=percent activity using active herbicide B (e.g. pyroxasulfone) at an application rate b; • E=expected activity (in %) by A+B at application rates a+b.
(§3) For 3-component mixtures the synergistic response was calculated as described in: Ferry, Nancy; Stanley, Bruce H.; and Armel, Gregory (2005). “DESIGN AND ANALYSIS OF BIOLOGICAL ASSAYS OF MIXTURES,” Conference on Applied Statistics in Agriculture. https://doi.org/10.4148/2475-7772.1133. According to this publication, the Colby calculation can be generalized to a third mixing partner, Z, employing the following formula: […]
(§4) If the value found experimentally is higher than the value E calculated according to Colby, a synergistic effect is present.
(§5) On field test sites, natural weed infestation or seeded weeds were treated post-emergence of the weeds.
(§6) In the field trials, the weeds were treated as indicated below.
(§7) In the following experiments, the herbicidal activity for the individual herbicidal compositions (solo and mixture applications) was assessed at the indicated days after treatment (DAT). The assessments for the damage on undesired weeds caused by the composition was carried out using a scale from 0 to 100%, compared to the untreated control plants. Here, 0 means no damage and 100 means complete destruction of the plants.
(§8) Herbicide A-1 (342 g/l) and pyroxasulfone (500 g/l) were, together with addition of 0.25 v/v % MSO (methylated seed oil) as adjuvant, formulated in 200 l/ha water as distribution medium and sprayed with commercial flat fan nozzles.
(§9) Herbicide A-1 (342 g/l), pyroxasulfone (500 g/l) and trifludimoxazin (500 g/l) were, together with addition of 0.25 v/v % MSO (methylated seed oil) as adjuvant, formulated in 200 l/ha water as distribution medium and sprayed with commercial flat fan nozzles.
(§10) Herbicide A-1 (342 g/I), pyroxasulfone (500 g/l) and glyphosate-isopropylammonium (356 g/l) were, together with addition of 0.25 v/v % MSO (methylated seed oil) as adjuvant, formulated in 200 l/ha water as distribution medium and sprayed with commercial flat fan nozzles.
(§11) Herbicide A-1 (342 g/l), pyroxasulfone (500 g/l) and glufosinate-P-ammonium (211 g/l) were, together with addition of 0.25 v/v % MSO (methylated seed oil) as adjuvant, formulated in 200 l/ha water as distribution medium and sprayed with commercial flat fan nozzles.
(§12) Herbicide A-1 (342 g/l), pyroxasulfone (500 g/l) and 2,4-D-choline (456 g/l) were, together with addition of 0.25 v/v % MSO (methylated seed oil) as adjuvant, formulated in 200 l/ha water as distribution medium and sprayed with commercial flat fan nozzles.

[2] = system: Digitaria sanguinalis (DIGSA)
Description: as §1, §2, §3, §4, §5, §6, §7, §8, §9, §10, §11, §12

[3] = system: Hordeum vulgare (HORVW)
Description: as §1, §2, §3, §4, §5, §6, §7, §8, §9, §10, §11, §12

Measured: % Herbicidal activity

Cn1nc(C(F)(F)F)c(CS(=O)(=O)C2=NOC(C)(C)C2)c1OC(F)F [B, pyroxasulfone]
0%: [1]; 7 DAT, stage 31-49, height 10-12 cm, g ai/ha A-1 12.5, B 70, C-4 12.5 | [1]; 21 DAT, stage 31-49, height 10-12 cm, g ai/ha A-1 18, B 70, C-12 252 | [1]; 21 DAT, stage 31-49, height 10-12 cm, g ai/ha A-1 18, B 90, C-12 252 | [1]; 42 DAT, stage 31-49, height 10-12 cm, g ai/ha A-1 12.5, B 70, C-4 12.5 | [1]; 42 DAT, stage 31-49, height 10-12 cm, g ai/ha A-1 18, B 70 | [1]; 42 DAT, stage 31-49, height 10-12 cm, g ai/ha A-1 18, B 70, C-4 12.5 | [1]; 42 DAT, stage 31-49, height 10-12 cm, g ai/ha A-1 18, B 90, C-4 12.5 | [1]; AMARE, growth stage 31-49, height 10-12 cm, B 70 g ai/ha, 7 DAT, Table 4.1 | [1]; AMARE, growth stage 31-49, height 10-12 cm, B 70 g ai/ha, 21 DAT, Table 4.3 | [1]; AMARE, growth stage 31-49, height 10-12 cm, B 90 g ai/ha, 7 DAT, Table 4.1 | [1]; AMARE, growth stage 31-49, height 10-12 cm, B 90 g ai/ha, 21 DAT, Table 4.3 | [2]; 7 DAT, stage 22, height 10-15 cm, g ai/ha A-1 12.5, B 70, C-4 12.5 | [2]; 7 DAT, stage 22, height 10-15 cm, g ai/ha A-1 18, B 70, C-4 12.5 | [2]; 7 DAT, stage 22, height 10-15 cm, g ai/ha A-1 18, B 70, C-8 840 | [2]; 7 DAT, stage 22, height 10-15 cm, g ai/ha A-1 18, B 70, C-12 252 | [2]; 7 DAT, stage 22, height 10-15 cm, g ai/ha A-1 18, B 90, C-4 12.5 | [2]; 7 DAT, stage 22, height 10-15 cm, g ai/ha A-1 18, B 90, C-8 840 | [2]; 7 DAT, stage 22, height 10-15 cm, g ai/ha A-1 18, B 90, C-12 252 | [2]; 21 DAT, stage 22, height 10-15 cm, g ai/ha A-1 12.5, B 70, C-4 12.5 | [2]; 21 DAT, stage 22, height 10-15 cm, g ai/ha A-1 18, B 70, C-4 12.5 | [2]; 21 DAT, stage 22, height 10-15 cm, g ai/ha A-1 18, B 70, C-12 252 | [2]; 21 DAT, stage 22, height 10-15 cm, g ai/ha A-1 18, B 90, C-4 12.5 | [2]; 21 DAT, stage 22, height 10-15 cm, g ai/ha A-1 18, B 90, C-12 252 | [2]; 42 DAT, stage 22, height 10-15 cm, g ai/ha A-1 12.5, B 70 | [2]; 42 DAT, stage 22, height 10-15 cm, g ai/ha A-1 12.5, B 70, C-4 12.5 | [2]; 42 DAT, stage 22, height 10-15 cm, g ai/ha A-1 18, B 70 | [2]; 42 DAT, stage 22, height 10-15 cm, g ai/ha A-1 18, B 70, C-4 12.5 | [2]; 42 DAT, stage 22, height 10-15 cm, g ai/ha A-1 18, B 70, C-12 252 | [2]; 42 DAT, stage 22, height 10-15 cm, g ai/ha A-1 18, B 90 | [2]; 42 DAT, stage 22, height 10-15 cm, g ai/ha A-1 18, B 90, C-4 12.5 | [2]; 42 DAT, stage 22, height 10-15 cm, g ai/ha A-1 18, B 90, C-12 252 | [2]; DIGSA, growth stage 22, height 10-15 cm, B 70 g ai/ha, 7 DAT, Table 4.1 | [2]; DIGSA, growth stage 22, height 10-15 cm, B 70 g ai/ha, 21 DAT, Table 4.3 | [2]; DIGSA, growth stage 22, height 10-15 cm, B 90 g ai/ha, 7 DAT, Table 4.1 | [2]; DIGSA, growth stage 22, height 10-15 cm, B 90 g ai/ha, 21 DAT, Table 4.3 | [2]; Table 8.1, 7 DAT, stage 22, height 10-15 cm, g ai/ha A-1 18, B 70, C-12 1066 | [2]; Table 8.2, 21 DAT, stage 22, height 10-15 cm, g ai/ha A-1 18, B 70, C-12 1066 | [2]; Table 8.4, 42 DAT, stage 22, height 10-15 cm, g ai/ha A-1 18, B 70, C-12 1066 | [3]; 7 DAT, stage 23-29, height 20-25 cm, g ai/ha A-1 12.5, B 70, C-12 252 | [3]; 7 DAT, stage 23-29, height 20-25 cm, g ai/ha A-1 18, B 70, C-12 252 | [3]; 7 DAT, stage 23-29, height 20-25 cm, g ai/ha A-1 18, B 90, C-12 252 | [3]; 21 DAT, stage 23-29, height 20-25 cm, g ai/ha A-1 12.5, B 70, C-12 252 | [3]; 21 DAT, stage 23-29, height 20-25 cm, g ai/ha A-1 18, B 70, C-12 252 | [3]; 21 DAT, stage 23-29, height 20-25 cm, g ai/ha A-1 18, B 90, C-12 252 | [3]; 28 DAT, stage 23-29, height 20-25 cm, g ai/ha A-1 12.5, B 70, C-12 252 | [3]; 28 DAT, stage 23-29, height 20-25 cm, g ai/ha A-1 18, B 70, C-12 252 | [3]; 28 DAT, stage 23-29, height 20-25 cm, g ai/ha A-1 18, B 90, C-12 252 | [3]; HORVW, growth stage 23-29, height 20-25 cm, B 70 g ai/ha, 7 DAT, Table 4.2
